Measurements: patent publication US20230190760A1, “ADVANTAGEOUS THERAPIES FOR DISORDERS MEDIATED BY IKAROS OR AIOLOS” (C4 Therapeutics, Inc., priority 2020, published 2023)
“Also recorded” adds a separate entry of the source.

Legend:
[1] = target: cereblon-DDB1 (Homo sapiens, UniProt Q96SW2); test: Fluorescent polarization: probe displacement from purified cereblon-DDB1; assay type: binding; details: competition with Alexa-647 based fluorescence probe
Protocol: Columns 23 and 24 are reserved for 0% (5 nM probe) and 100% controls (protein at high concentration with 5 nM probe), respectively. […] Plates were read on an Envision plate reader with appropriate FP filter sets.

[2] = system: SU-DHL-2; test: Anti-proliferative activity, 96 hours; details: Homo sapiens, SU-DHL-2, 96 h
[3] = system: HepG2 liver cancer cells; test: Viability assay in HepG2 liver cancer cells; assay type: cell-based; details: concentrations up to 3.3 μM
[4] = system: KI-JK ALCL tumors; test: KI-JK ALCL xenograft efficacy (Example 20); assay type: in vivo, mice; details: 100 μg/kg PO daily for 21 days
Protocol: A xenograft study was conducted in female NOD SCID mice bearing KI-JK ALCL tumors.
Data are expressed as MTV±SEM.

[5] = target: T1, IKZF1 (Homo sapiens, UniProt Q13422+Q96SW2); test: Ikaros degradation in Ki-JK cells by flow cytometry; assay type: cell-based; set-up: host or cells: Ki-JK cells
Protocol: Flow cytometry was used to assess the Ikaros degradation characteristics and evaluate the mechanism of Compound 1. […] The cells were prepared for staining using the FOXP3 Fix/Perm Buffer Set (BioLegend, 421403) according to the manufacturer's instructions at 1.5, 3, and 6 hours. IKZF1-AF488 (564867) and IgG1-488 (557782) (BD Biosciences) were diluted 1:100 in Perm Buffer. Signal was detected using the Guava® easyCyte™ Flow Cytometer. […] Degradation was not observed with the combination of Compound 1 and bortezomib or MLN-4924.

[6] = system: RPMI-8226 tumors; test: RPMI-8226 xenograft, crossover from pomalidomide to Compound 1; assay type: in vivo, mice; details: 100 μg/kg/day
Protocol: Vehicle treated animals were treated for 28 days until tumors reached a MTV of 2211 mm^3. […] Data are expressed as MTV±SEM.
Tumor growth was monitored throughout the study. […] Measurements were twice weekly. The health of the mice was monitored, and noteworthy clinical observations were recorded. Acceptable toxicity was defined as a group's mean BW loss of less than 20% during the study and not more than one treatment related death among ten treated animals, or 10%.
Animals were weighed on a twice weekly schedule.

[7] = system: Caspase 3/7 activity in NCIH929 multiple myeloma cells; test: Apoptosis induction, Caspase 3/7 activity in NCIH929 cells; assay type: cell-based
Protocol: 30 μL NCIH929 cells were seeded into the 384-well plates in RPMI medium containing 10% FBS and 0.05 mM 2-mercaptoethanol at a cell density of 1000 cells per well. Cells treated in the absence of the test compound were the negative control. Following compound treatment, cells were incubated at 37° C. with 5% CO2 for 72 hr. 30 μL reconstituted Caspase 3/7 Assay detection reagent was added to each well and luminescence was acquired on EnVision™ Multilabel Reader (PerkinElmer, Santa Clara, Calif., USA).

[8] = system: Pfeiffer; test: Anti-proliferative activity, 96 hours; details: Homo sapiens
[9] = system: mantel cell lymphoma (MCL) cell lines; test: Anti-cancer activity in MCL cell lines; assay type: cell-based; details: four of six lines tested were responsive; read-out: mean IC50 among the responsive lines
[10] = system: DOHH-2; test: Anti-proliferative activity, 96 hours; details: Homo sapiens, DOHH-2, 96 h
[11] = system: NHL cell lines; test: NHL cell line growth inhibition assay (CellTiter-Glo, 96 hr); assay type: cell-based; details: variety of cancer assays (FIG. 45A-C, FIG. 52)
[12] = system: RL; test: Anti-proliferative activity, 96 hours; details: Homo sapiens
[13] = system: TMD8 DLBCL tumors; test: TMD8 DLBCL xenograft, NOD SCID mice; assay type: in vivo
Protocol: A xenograft study was also conducted in female NOD SCID mice bearing TMD8 DLBCL tumors.
Statistical analysis was performed using two-way analysis of variance (ANOVA). Data are expressed as MTV±SEM.

[14] = system: tumor xenografts; test: Mouse xenograft tumor models (summary); assay type: in vivo
Protocol: Compound 1 efficacy in two multiple myeloma cell lines (NC-H929) and (RPMI-8226) was evaluated at four different doses: 3 μg/kg, 10 μg/kg, 30 μg/kg, and 100 μg/kg. Compound 1 was administered QD (every day) orally (PO). […]

[15] = system: IKZF1 and IKZF3; test: IKZF1 and IKZF3 in blood cells of a monkey by flow cytometry; assay type: in vivo, cynomolgus monkey; details: 30 μg/kg oral gavage, 4-hour and 24-hour timepoint
Protocol: One fasted male cynomolgus monkey was administered Compound 1 formulated in 1% carboxymethylcellulose sodium+20% PEG400 in citrate buffer at 30 μg/kg by oral gavage. At indicated timepoints, blood was collected from a peripheral vessel from a restrained, non sedated monkey. 50 uL of whole blood was added to a flow tube with 1 ml PBS, centrifuged for 5 minutes at 400×g and supernatant discarded. Blood was lysed in 1 mL of lysis buffer for 10-15 minutes at room temperature, centrifuged for 5 minutes at 400× and supernatant discarded. PBS (1 mL) was added to each tube, centrifuged for 5 minutes at 400×g and supernatant discarded. PBS (1 mL) was added together with 1 ul of Zombie NIR dye to the white blood cells and incubated for 20 minutes at room temperature. The cells were centrifuged for 5 minutes at 400×g and supernatant discarded. Fixation buffer (1 mL) was added and incubated for 20 minutes at room temperature. Cells were washed with permeabilization buffer (1 mL) and centrifuged for 5 minutes at 400×g and supernatant discarded. […] Cells were washed twice with PBS (1 mL), resuspended in PBS and analyzed analyzed on a BD LSR Fortessa Flow Cytometer. FIG. 24 is a graph of the percent mean fluorescence intensity of IKZF1 and IZKF3 at 4 h and 24 hr post dose compared to the pre-dose sample. […]

[16] = target: T1, IKZF1
Protocol: Endogenous expression of IKZF1 in NCIH929 cells was determined by addition of N-terminal HiBiT tag to the NCIH929 cell line using CRISPR-Cas9. Briefly, test compound was added to 384-well plates at a top concentration of 1 μM with 10 points, half log titration in duplicates. NCIH929 cells expressing HiBiT-tagged IKZF1 were seeded into the 384-well plates in RPMI medium containing 10% FBS and 0.05 mM 2-mercaptoethanol at a cell density of 15000 cells per well. Cells treated in the absence of the test compound were the negative control and wells containing media only were the positive control. Following compound treatment, cells were incubated at 37° C. with 5% CO2 for 1.5 hr. HiBiT signal was determined using Nano-Glo™ HiBiT Lytic Assay System (Promega, N3050) and luminescence was acquired on EnVision™ Multilabel Reader (PerkinElmer, Santa Clara, Calif., USA). % IKZF1 remaining was determined by normalizing the signal with positive and negative controls on the same microtiter plate. […] Curve fit and IC50 determination was performed by 4 parametric regression analysis.
NCIH929 cells expressing HiBiT-tagged IKZF1 were seeded into the 384-well plates in RPMI medium containing 10% FBS and 0.05 mM 2-mercaptoethanol at a cell density of 15000 cells per well. Cells treated in the absence of the test compound were the negative control and wells containing media only were the positive control. Following compound treatment, cells were incubated at 37° C. with 5% CO2 for 1 or 2 hr. HiBiT signal was determined using Nano-Glo™ HiBiT Lytic Assay System (Promega, N3050) and luminescence was acquired on EnVision™ Multilabel Reader (PerkinElmer, Santa Clara, Calif., USA). % IKZF1 remaining was determined by normalizing the signal with positive and negative controls on the same microtiter plate. Curve fit and IC50 determination was performed by 4 parametric regression analysis.

[17] = system: 87 potential unintended molecular targets; test: In vitro binding or activity against 87 potential unintended molecular targets; details: 100 nM, 500× the free plasma exposure (Cmax) of maximum in vivo efficacy

T1 sequence (Q13422 whole entry): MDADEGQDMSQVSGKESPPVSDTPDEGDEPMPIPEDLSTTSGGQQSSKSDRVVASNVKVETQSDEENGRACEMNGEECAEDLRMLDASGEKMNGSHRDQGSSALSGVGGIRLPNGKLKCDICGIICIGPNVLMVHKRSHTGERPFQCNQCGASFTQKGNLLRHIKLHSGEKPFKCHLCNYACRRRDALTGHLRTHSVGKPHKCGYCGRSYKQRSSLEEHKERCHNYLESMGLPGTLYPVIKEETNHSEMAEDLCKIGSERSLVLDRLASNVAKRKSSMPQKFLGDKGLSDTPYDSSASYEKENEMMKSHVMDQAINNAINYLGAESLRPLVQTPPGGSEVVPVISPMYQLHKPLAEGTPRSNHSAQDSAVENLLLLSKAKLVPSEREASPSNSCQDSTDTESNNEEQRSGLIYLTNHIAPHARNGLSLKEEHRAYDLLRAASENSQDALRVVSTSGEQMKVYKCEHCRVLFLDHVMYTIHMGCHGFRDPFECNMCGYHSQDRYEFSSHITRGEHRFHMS
T1 sequence (Q96SW2 whole entry): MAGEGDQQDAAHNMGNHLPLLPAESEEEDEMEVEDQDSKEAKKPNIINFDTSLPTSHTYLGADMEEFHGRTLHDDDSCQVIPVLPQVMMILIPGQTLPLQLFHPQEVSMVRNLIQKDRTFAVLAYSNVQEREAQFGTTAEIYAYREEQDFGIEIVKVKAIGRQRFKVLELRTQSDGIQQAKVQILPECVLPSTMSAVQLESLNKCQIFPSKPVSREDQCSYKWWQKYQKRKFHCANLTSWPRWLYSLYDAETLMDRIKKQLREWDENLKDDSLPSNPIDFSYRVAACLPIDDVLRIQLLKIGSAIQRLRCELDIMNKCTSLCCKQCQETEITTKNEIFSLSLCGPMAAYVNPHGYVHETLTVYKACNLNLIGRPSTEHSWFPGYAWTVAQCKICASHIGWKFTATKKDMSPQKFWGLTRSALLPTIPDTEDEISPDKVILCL
T1 sequence (Q16531 2-1140 partner limits assumed): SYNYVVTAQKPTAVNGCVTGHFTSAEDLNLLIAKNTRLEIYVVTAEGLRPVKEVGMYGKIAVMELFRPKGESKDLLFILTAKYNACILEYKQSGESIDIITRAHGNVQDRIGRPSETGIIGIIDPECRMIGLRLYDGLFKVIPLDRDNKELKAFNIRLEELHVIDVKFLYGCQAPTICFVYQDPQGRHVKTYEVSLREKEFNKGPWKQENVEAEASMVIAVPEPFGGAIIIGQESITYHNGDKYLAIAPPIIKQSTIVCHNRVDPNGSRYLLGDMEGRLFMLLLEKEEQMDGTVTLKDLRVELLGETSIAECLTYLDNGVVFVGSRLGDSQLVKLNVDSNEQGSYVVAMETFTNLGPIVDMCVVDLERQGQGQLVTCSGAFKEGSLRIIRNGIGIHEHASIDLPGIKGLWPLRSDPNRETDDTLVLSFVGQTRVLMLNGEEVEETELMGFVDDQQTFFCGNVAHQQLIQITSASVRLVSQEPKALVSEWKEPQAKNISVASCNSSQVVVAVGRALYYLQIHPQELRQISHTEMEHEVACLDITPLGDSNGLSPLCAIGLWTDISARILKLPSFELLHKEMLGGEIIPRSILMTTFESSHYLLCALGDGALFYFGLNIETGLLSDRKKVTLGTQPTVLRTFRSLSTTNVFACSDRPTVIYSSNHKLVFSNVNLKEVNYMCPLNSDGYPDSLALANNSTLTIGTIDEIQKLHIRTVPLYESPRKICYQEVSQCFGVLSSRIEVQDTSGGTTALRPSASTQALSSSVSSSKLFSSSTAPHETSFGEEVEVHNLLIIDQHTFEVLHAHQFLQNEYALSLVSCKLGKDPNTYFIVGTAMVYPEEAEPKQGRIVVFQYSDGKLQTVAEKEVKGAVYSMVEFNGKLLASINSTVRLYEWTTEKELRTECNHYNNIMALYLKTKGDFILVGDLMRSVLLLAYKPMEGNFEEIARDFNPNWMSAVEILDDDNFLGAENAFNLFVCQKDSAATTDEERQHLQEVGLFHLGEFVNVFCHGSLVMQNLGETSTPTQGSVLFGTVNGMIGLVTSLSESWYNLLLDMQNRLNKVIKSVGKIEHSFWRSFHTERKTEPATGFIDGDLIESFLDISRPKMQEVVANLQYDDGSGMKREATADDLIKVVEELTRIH
Sequence of cereblon-DDB1 (Q96SW2 whole entry): as the sequence (Q96SW2 whole entry) above
Sequence of cereblon-DDB1 (Q16531 whole entry partner): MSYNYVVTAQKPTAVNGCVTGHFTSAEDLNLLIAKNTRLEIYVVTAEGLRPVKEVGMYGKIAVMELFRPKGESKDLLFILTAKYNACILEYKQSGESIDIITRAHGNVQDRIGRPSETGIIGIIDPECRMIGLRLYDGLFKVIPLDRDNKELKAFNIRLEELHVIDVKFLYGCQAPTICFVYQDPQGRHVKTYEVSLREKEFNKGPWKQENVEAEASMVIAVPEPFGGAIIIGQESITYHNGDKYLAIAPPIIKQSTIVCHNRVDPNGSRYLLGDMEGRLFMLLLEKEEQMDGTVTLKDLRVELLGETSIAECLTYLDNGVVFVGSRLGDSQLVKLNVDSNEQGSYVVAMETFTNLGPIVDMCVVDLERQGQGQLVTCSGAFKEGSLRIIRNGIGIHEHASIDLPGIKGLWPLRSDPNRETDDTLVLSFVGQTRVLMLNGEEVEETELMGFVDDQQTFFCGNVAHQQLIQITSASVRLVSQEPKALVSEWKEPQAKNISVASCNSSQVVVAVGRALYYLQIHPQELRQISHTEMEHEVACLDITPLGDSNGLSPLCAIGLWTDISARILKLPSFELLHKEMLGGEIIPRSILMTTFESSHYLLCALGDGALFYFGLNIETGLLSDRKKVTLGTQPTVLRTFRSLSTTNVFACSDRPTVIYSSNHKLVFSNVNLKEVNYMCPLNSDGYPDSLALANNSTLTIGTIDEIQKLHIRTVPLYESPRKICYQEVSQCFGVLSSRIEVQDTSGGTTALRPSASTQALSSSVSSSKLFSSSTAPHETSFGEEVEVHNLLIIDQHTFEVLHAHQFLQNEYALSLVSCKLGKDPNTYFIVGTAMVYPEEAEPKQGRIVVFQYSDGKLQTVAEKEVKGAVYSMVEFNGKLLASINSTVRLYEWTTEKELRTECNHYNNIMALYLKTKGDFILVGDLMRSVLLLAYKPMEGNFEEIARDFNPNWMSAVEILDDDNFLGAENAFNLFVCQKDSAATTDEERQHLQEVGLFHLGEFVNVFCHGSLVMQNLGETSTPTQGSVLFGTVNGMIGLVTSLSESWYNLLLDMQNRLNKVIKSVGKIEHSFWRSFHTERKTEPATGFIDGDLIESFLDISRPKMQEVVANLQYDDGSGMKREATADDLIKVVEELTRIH

SMILES: O=C1CC[C@H](N2C(=O)c3cccc4c(Cc5ccc(CN6CCOCC6)cc5)ccc2c34)C(=O)N1 (single isomer, unassigned) [Compound 1]
- Kd [1]: 0.9 nM
- IC50 [2]: 4.55 nM
- effect on viability [3]: no significant effect
- tumor volume [4]: reduced tumor volume
- time of maximal Ikaros degradation ([5]; 0.001-100 nM, read at 1.5, 3 and 6 hours): 6 h
- Ikaros degradation with proteasome or neddylation inhibitor ([5]; with bortezomib (10 μM) or MLN-4924 (10 μM), 6 hours): not observed
- tumor volume after crossover from pomalidomide [6]: rapid tumor regression; also recorded: began to decrease
- Maximum caspase 3/7 activity ([7]; 72 hours): > 2 fold
- EC50 ([7]; Homo sapiens, NCI-H929, 72 h, read-out: EC50, caspase 3/7 activity): 0.58 nM
- IC50 [8]: 1.08 nM
- IC50 [9]: 13 nM
- IC50 [10]: 2.73 nM
- more potent than pomalidomide [11]: more than 100 fold
- IC50 [12]: 2.32 nM
- Statistical Significance Compared to Vehicle ([13]; 100 μg/kg PO daily): <0.0001
- tumor volume ([13]; Compound 1 100 μg/kg, pomalidomide 3000 μg/kg, 18 days): decreased
- tumor response ([14]; daily dosing at 30 μg/kg/day to 100 μg/kg/day, several tumor xenografts): durable tumor regression
- efficacy ([14]; from 3 μg/kg/day to 100 μg/kg/day): dose dependent efficacy
- levels of IKZF1 and IKZF3 versus pre-dose [15]: smaller
- DC50 ([16]; 2 hour treatment): 0.021 nM
- Emax ([16]; NCI-H929, read-out: Mean Emax (%) ± SD, IKZF1 Degradation): 22.4 ± 3.1%
- Dmax ([16]; NCI-H929, read-out: maximal degradation of IKZF1): > 80%
- IKZF1 degradation ([16]; after 1 hour treatment): 50%
- potency greater than pomalidomide ([16]; at 2 hr): > 2000 fold
- degradation of steady state IKZF1 ([16]; multiple myeloma cells, within 1.5 hours at 0.3 nM): > 75%
- off-target inhibition [17]: no targets inhibited >50%
